{"source": "paper PMC5769417", "about": "“Single- and Multiple-Dose Trials to Determine the Pharmacokinetics, Safety, Tolerability, and Sex Effect of Oral Ginsenoside Compound K in Healthy Chinese Volunteers” (Frontiers in Pharmacology, 2018)", "key": {"beagle dogs": {"test_system": "beagle dogs", "conditions": "cited from earlier work"}, "[1]": {"assay": "Multiple-dose trial, plasma pharmacokinetics", "assay_type": "in vivo, human", "conditions": "for Accumulation index: 1/(1 − e^−Kτ)", "protocol": "Multiple-dose pharmacokinetics: […] Multiple-dose pharmacokinetics: […] All samples were preserved at −70°C and analyzed with a LC-MS/MS (API 4000 LC-MS/MS, ABI Company, Foster City, CA, USA) at the Institute of Clinical Pharmacology, Central South University (Changsha, China). […] An aqueous solution of a stable internal standard (IS for CK: digoxin, Shijiaoke Biological Technology Co. Ltd., Beijing, China; IS for PPD: coumarin, Sigma-Aldrich, St. Louis, USA) and 1 M phosphate buffer were added to 0.5 ml of thawed sample, and analytical standards and quality control (QC) samples were prepared in the same matrix. All samples were treated with 2 ml of methyl tert-butyl ether (MTBE, CNW technologies GmbH, Duesseldorf, Germany) to precipitate the bulk of plasma proteins. After mechanical shock by mixing for 10 min and a subsequent centrifugation (4,000 rpm, 4°C, 10 min), 1.4 ml of the supernatant was transferred and blow-dried with nitrogen in a water bath at 40°C. Lastly, the residue was dissolved in 100 μl of mobile phase and then was subjected to a mechanical shock by mixing, and centrifuged. The supernatant was subsequently injected into the column for analysis. […] Accuracy and precision of the assay were determined by evaluating the performance of the assay controls. Over the quantification range, the accuracy of the QC samples varied from 85 to 115% and the intra- and inter-assay imprecision was <15%. […] The area under the curve (AUC) from time zero to the last time point (AUClast) and the AUC extrapolated to infinity (AUCinf) were calculated using the linear trapezoidal rule. The slope (elimination rate constant, K) of the terminal phase of the plasma concentration-time profile was determined, using a weighting factor of 1, by the method of least squares (log-linear regression of at least three data points). The t1/2 was estimated as (ln2)/K. […] The apparent volume of distribution (V/F) was equal to (CL/F)/K. The mean residence time (MRT) was calculated as the area under the first moments curve (AUMC) divided by AUC. The dose-normalized PK parameters e.g., Cmax/D and AUClast/D, were obtained by dividing each PK result by the administered dose. The cumulative excretion rate was calculated as the amount of unchanged drug in the urine over a time interval divided by the dose and was expressed as thousand points (‰). On day 15 in the multiple-dose trial, the PK parameters, such as t1/2, CL/F, and V/F at steady state were calculated using the same method as that used for the single-dose trial. In addition, the Tmax at steady state (Tmax,ss), Cmax at steady state (Cmax,ss), and Cmin,ss were obtained from experimental observation after the steady state during the multiple-dose trial. […] The average steady-state drug concentration (Cavg) is calculated as AUCτ/τ, and the fluctuation ratio was calculated as (Cmax,ss − Cmin,ss)/Cavg. The accumulation index was calculated using dosing interval and elimination rate constant as in the following equation: 1/(1 − e^−Kτ)."}, "[2]": {"conditions": "100 mg oral after breakfast, Day 1"}, "[3]": {"conditions": "100 mg qd oral after breakfast, Day 15"}, "[4]": {"conditions": "200 mg oral after breakfast, Day 1"}, "[5]": {"conditions": "200 mg qd oral after breakfast, Day 15"}, "[6]": {"conditions": "400 mg oral after breakfast, Day 1"}, "[7]": {"conditions": "400 mg qd oral after breakfast, Day 15"}}, "note": "Where “and” joins values, the source holds several entries; their conditions need not be identical. Equal values may be shown once.", "data": [{"smiles": "CC(C)=CCC[C@](C)(OC1O[C@H](CO)[C@@H](O)[C@H](O)[C@H]1O)[C@H]1CC[C@]2(C)[C@@H]1[C@H](O)C[C@@H]1[C@@]3(C)CC[C@H](O)C(C)(C)[C@@H]3CC[C@]12C", "note": "(stereo partly drawn) [CK, 20-O-beta-D-glucopyranosyl-20(S)-protopanaxadiol]", "values": [{"measurement": "No observed adverse effect level (NOAEL)", "setting": "beagle dogs", "value": 7.5, "unit": "mg/kg"}, {"measurement": "dose at which diarrhea symptom occurred", "setting": "beagle dogs; long-term toxicity test", "value": 75, "unit": "mg/kg"}, {"measurement": "CL/F", "setting": "[1]; [2]", "value": "11.6 ± 3.0", "unit": "l·h ^−1"}, {"measurement": "V/F", "setting": "[1]; [2]", "value": "402 ± 54", "unit": "L"}, {"measurement": "AUMCτ (zero to 24 h)", "setting": "[1]; [3]", "value": "60141.5 ± 17696.2", "unit": "ng·h/mL"}, {"measurement": "CL/F", "setting": "[1]; [3]", "value": "13.4 ± 3.6", "unit": "l·h ^−1"}, {"measurement": "Fluctuation", "setting": "[1]; [3]", "value": "259.42% and 259.42 ± 48.85%"}, {"measurement": "V/F", "setting": "[1]; [3]", "value": "661 ± 242", "unit": "L"}, {"measurement": "Accumulation index", "setting": "[1]; 100 mg qd", "value": "2.62 and 2.62 ± 0.62"}, {"measurement": "CL/F", "setting": "[1]; [4]", "value": "9.6 ± 3.1", "unit": "l·h ^−1"}, {"measurement": "V/F", "setting": "[1]; [4]", "value": "326 ± 137", "unit": "L"}, {"measurement": "AUMCτ (zero to 24 h)", "setting": "[1]; [5]", "value": "179177.1 ± 49122.9", "unit": "ng·h/mL"}, {"measurement": "CL/F", "setting": "[1]; [5]", "value": "8.6 ± 2.5", "unit": "l·h ^−1"}, {"measurement": "Fluctuation", "setting": "[1]; [5]", "value": "289.25% and 289.25 ± 35.75%"}, {"measurement": "V/F", "setting": "[1]; [5]", "value": "455 ± 152", "unit": "L"}, {"measurement": "Accumulation index", "setting": "[1]; 200 mg qd", "value": "2.78 and 2.78 ± 0.73"}, {"measurement": "CL/F", "setting": "[1]; [6]", "value": "9.4 ± 2.4", "unit": "l·h ^−1"}, {"measurement": "V/F", "setting": "[1]; [6]", "value": "358 ± 118", "unit": "L"}, {"measurement": "AUMCτ (zero to 24 h)", "setting": "[1]; [7]", "value": "306621.5 ± 78711.0", "unit": "ng·h/mL"}, {"measurement": "CL/F", "setting": "[1]; [7]", "value": "10.3 ± 3.0", "unit": "l·h ^−1"}, {"measurement": "Fluctuation", "setting": "[1]; [7]", "value": "273.98% and 273.98 ± 37.16%"}, {"measurement": "V/F", "setting": "[1]; [7]", "value": "514 ± 188", "unit": "L"}, {"measurement": "Accumulation index", "setting": "[1]; 400 mg qd", "value": "2.60 and 2.60 ± 0.31"}, {"measurement": "accumulation index range", "setting": "[1]; 100–400 mg qd", "value": "2.60–2.78"}, {"measurement": "AUCinf/D, dose-normalized AUCinf", "setting": "[1]; Day 1, Female", "value": "116.58 ± 28.07^* h·ng·ml^−1·mg^−1"}, {"measurement": "AUClast/D, dose-normalized AUClast", "setting": "[1]; Day 1, Female", "value": "114.23 ± 27.97", "unit": "ng·h/mL/mg"}, {"measurement": "Cmax/D, dose-normalized Cmax", "setting": "[1]; Day 1, Female", "value": "14.49 ± 4.07", "unit": "ng/mL/mg"}, {"measurement": "AUCinf/D, dose-normalized AUCinf", "setting": "[1]; Day 1, Male", "value": "94.22 ± 24.54", "unit": "ng·h/mL/mg"}, {"measurement": "AUClast/D, dose-normalized AUClast", "setting": "[1]; Day 1, Male", "value": "92.27 ± 24.00", "unit": "ng·h/mL/mg"}, {"measurement": "Cmax/D, dose-normalized Cmax", "setting": "[1]; Day 1, Male", "value": "11.00 ± 4.25", "unit": "ng/mL/mg"}, {"measurement": "AUCinf/D, dose-normalized AUCinf", "setting": "[1]; Day 1, all subjects", "value": "105.41 ± 28.29", "unit": "ng·h/mL/mg"}, {"measurement": "AUClast/D, dose-normalized AUClast", "setting": "[1]; Day 1, all subjects", "value": "103.25 ± 27.94", "unit": "ng·h/mL/mg"}, {"measurement": "Cmax/D, dose-normalized Cmax", "setting": "[1]; Day 1, all subjects", "value": "12.74 ± 4.46", "unit": "ng/mL/mg"}, {"measurement": "AUCinf/D, GMR (95% CI)", "setting": "[1]; Day 1, between sexes", "value": "1.25 (1.03–1.51)"}, {"measurement": "AUClast/D, GMR (95% CI)", "setting": "[1]; Day 1, between sexes", "value": "1.25 (1.03–1.51)"}, {"measurement": "Cmax/D, GMR (95% CI)", "setting": "[1]; Day 1, between sexes", "value": "1.37 (1.04–1.80)"}, {"measurement": "AUCinf/D, GMR (95% CI)", "setting": "[1]; Day 1 vs Day 15", "value": "0.75 (0.64–0.87)"}, {"measurement": "AUClast/D, GMR (95% CI)", "setting": "[1]; Day 1 vs Day 15", "value": "0.79 (0.67–0.91)"}, {"measurement": "Cmax/D, GMR (95% CI)", "setting": "[1]; Day 1 vs Day 15", "value": "1.00 (0.82–1.22)"}, {"measurement": "AUCinf/D, dose-normalized AUCinf", "setting": "[1]; Day 15, Female", "value": "153.33 ± 30.98", "unit": "ng·h/mL/mg"}, {"measurement": "AUClast/D, dose-normalized AUClast", "setting": "[1]; Day 15, Female", "value": "143.45 ± 29.33", "unit": "ng·h/mL/mg"}, {"measurement": "Cmax/D, dose-normalized Cmax", "setting": "[1]; Day 15, Female", "value": "14.25 ± 3.38", "unit": "ng/mL/mg"}, {"measurement": "AUCinf/D, dose-normalized AUCinf", "setting": "[1]; Day 15, Male", "value": "132.87 ± 52.60", "unit": "ng·h/mL/mg"}, {"measurement": "AUClast/D, dose-normalized AUClast", "setting": "[1]; Day 15, Male", "value": "123.74 ± 47.85", "unit": "ng·h/mL/mg"}, {"measurement": "Cmax/D, dose-normalized Cmax", "setting": "[1]; Day 15, Male", "value": "11.18 ± 5.19", "unit": "ng/mL/mg"}, {"measurement": "AUCinf/D, dose-normalized AUCinf", "setting": "[1]; Day 15, all subjects", "value": "143.10 ± 43.67", "unit": "ng·h/mL/mg"}, {"measurement": "AUClast/D, dose-normalized AUClast", "setting": "[1]; Day 15, all subjects", "value": "133.59 ± 40.26", "unit": "ng·h/mL/mg"}, {"measurement": "Cmax/D, dose-normalized Cmax", "setting": "[1]; Day 15, all subjects", "value": "12.71 ± 4.58", "unit": "ng/mL/mg"}, {"measurement": "AUCinf/D, GMR (95% CI)", "setting": "[1]; Day 15, between sexes", "value": "1.21 (0.96–1.53)"}, {"measurement": "AUClast/D, GMR (95% CI)", "setting": "[1]; Day 15, between sexes", "value": "1.21 (0.96–1.52)"}, {"measurement": "Cmax/D, GMR (95% CI)", "setting": "[1]; Day 15, between sexes", "value": "1.36 (1.04–1.76)"}, {"measurement": "MRT last", "setting": "[1]; both sexes, human, plasma, 100 mg oral after breakfast, Day 1", "value": "12.2 ± 1.4", "unit": "h"}, {"measurement": "AUC", "setting": "[1]; both sexes, human, plasma, 100 mg qd oral after breakfast, Day 15, read-out: AUCτ (zero to 24 h)", "value": "8000 ± 2320", "unit": "ng·h/mL"}, {"measurement": "concentration at 15 day", "setting": "[1]; both sexes, human, plasma, 100 mg qd oral after breakfast, Day 15, steady state, read-out: Cmin", "value": "333 ± 96.7", "unit": "ng/mL"}, {"measurement": "MRT last", "setting": "[1]; both sexes, human, plasma, 200 mg oral after breakfast, Day 1", "value": "12.6 ± 1.6", "unit": "h"}]}]}
